Measurements: ChEMBL document CHEMBL1127099, “Anticonvulsant activity of glycine-site NMDA antagonists. 2. trans 2-carboxy-4-substituted tetrahydroquinolines” (Bioorg Med Chem Lett, 1993)

Experiments:
Rattus norvegicus = organism: Rattus norvegicus; experiment: Tested for the antagonistic potency for blockade of NMDA-induced depolarizations in rat cortical slices; format: functional
[1] = Ratio of ED50 values administered intracerebroventricular to that of antagonistic potency (Kb); format: functional
Mus musculus [2] = experiment: Tested for the anticonvulsant activity in DBA/2 mice after 30 mins of intraperitoneal administration; format: functional; conditions: ip, 0.5 h
Glutamate NMDA receptor [3] = experiment: Tested for the binding affinity at glycine recognition site of the NMDA receptor in rat cortical membranes using radiolabeled [3H]- L-689 560; format: cell membranes, Membrane
[4] = Plasma half-life was tested; format: ADME, cell-free
[5] = Partition coefficient (logP); format: physicochemical; conditions: octanol/water
Glutamate NMDA receptor [6] = experiment: Tested for the binding affinity at glycine recognition site of the NMDA receptor in rat cortical membranes using radiolabeled [3H]-L-689,560 560; format: cell membranes, Membrane
Mus musculus [7] = experiment: Tested for the anticonvulsant activity in DBA/2 mice after 15 mins of intracerebroventricular administration at pH 8.0; format: functional

Structure (SMILES) | Kb (Rattus norvegicus) [nM] | Ratio [1] | ED50 (Mus musculus [2]) [mg/kg] | IC50 (Glutamate NMDA receptor [3]) [nM] | also measured
NC(Cc1ccc(CC(=O)N[C@H]2C[C@H](C(=O)O)Nc3cc(Cl)cc(Cl)c32)cc1)C(=O)O (stereo partly drawn) | 840 | 0.6 | 29 | 32 | –
NCc1ccc(CC(=O)N[C@H]2C[C@H](C(=O)O)Nc3cc(Cl)cc(Cl)c32)cc1 | 240 | 15 | 39 | 19 | half-life [4]: 1.83 h
O=C(Nc1ccccc1)N[C@H]1C[C@H](C(=O)O)Nc2cc(Cl)cc(Cl)c21 | 130 | – | > 100 | – | –
O=C(O)C[C@H]1C[C@H](C(=O)O)Nc2cc(Cl)cc(Cl)c21 | – | – | – | 74 | –
O=C(Cc1ccccc1)N[C@H]1C[C@H](C(=O)O)Nc2cc(Cl)cc(Cl)c21 | 530 | 9 | 46 | – | logP [5]: 0.55; IC50 (Glutamate NMDA receptor [6]): 14 nM
O=[N+]([O-])c1cc([N+](=O)[O-])c2nc(O)c(O)nc2c1 | 1230 | >16 | > 10 | – | –
CN(C(=O)Nc1ccccc1)[C@H]1C[C@H](C(=O)O)Nc2cc(Cl)cc(Cl)c21 | – | – | – | 9 | –
O=C(O)c1cc(O)c2c(Cl)cc(Cl)cc2n1 | – | – | > 250 | – | –
COC(=O)[C@H]1C[C@H](NC(=O)Cc2ccc(CN)cc2)c2c(Cl)cc(Cl)cc2N1.Cl | – | – | 31.5 | – | –
O=C(C[C@H]1C[C@H](C(=O)O)Nc2cc(Cl)cc(Cl)c21)Nc1ccccc1 | – | – | – | – | IC50 (Glutamate NMDA receptor [6]): 19 nM
C/C(=C\C(N)C(=O)O)CP(=O)(O)O (stereo not drawn) [CGP-37849] | 200 | 0.1 | 0.8 | – | ED50 (Mus musculus [7]): 0.02 nM
C[C@]12N[C@H](Cc3ccccc31)c1ccccc12 [DIZOCILPINE] | 80 | 23 | 0.2 | – | –
O=C(O)c1cc(=O)c2ccccc2[nH]1 [TRANSTORINE] | 154000 | – | > 250 | – | –
